The record followed here is US20240398783A1, “Compounds and Pharmaceutical Compositions Comprising Inhibitors of Amyloid Peptide Interactions with Glycosaminoglycans, Methods of Treatment and Use Thereof” (Gismo Therapeutics, Inc., priority 2021, published 2024).

Each structure is given as a SMILES string. Where a name gives a salt, the structure may show the parent alone. Read-outs that look alike come from different tables or passages of the source.

Experiment [1] addresses TDP-43 binding to heparin (HS-GAG) (Homo sapiens, UniProt Q13148). Put plainly: Inhibition of TDP-43 binding to immobilized heparin-BSA (ELISA). The arrangement: species or system porcine. As to conditions: for inhibition at 30 µM: read-out: TDP43/Heparin Activity (% inhibition class); for IC50: TDP-43, heparin-BSA. As for the experimental part: (§1) Porcine intestinal mucosa heparin conjugated to Bovine Serum Albumin (Heparin-BSA) was prepared as described (Najjam, S. et al. 1997, Cytokine 12, 1013-1022). Heparin is a sulfated HS-GAG and is commonly used as a HS-GAG in biochemical and binding assays (Lindahl, U. and Kjellen, L. (2013) ibid). Heparin-BSA at 0.01 mg/ml in Phosphate Buffered Saline (PBS; pH 7.4) was added to a 96 well polystyrene ELISA plate (NUNC Cat. No. 449824; 100 μl per well) and incubated Over Night (ON) at 4 degrees Celsius. For negative controls, ELISA plates were coated with BSA instead of Heparin-BSA, using the same procedure. Following the incubation, the plate was washed consecutively, by immersion, with de-ionized water and PBS (pH 7.4). The ELISA plate was then blocked with nonfat milk (2%, 200 μl per well) for 2 hours at Room Temperature (RT) with gentle shaking. Following blocking, the plate was washed with de-ionized water then PBS (pH 7.4). GBAPs were dissolved and diluted in PBS (pH 6.5, supplemented with 0.1% BSA) at desired concentrations, added to the ELISA plates containing immobilized Heparin-BSA (100 μl per well) and incubated for 2 hours at RT with gentle shaking. Following incubation, the plate was washed with de-ionized water and three times with PBS (pH 6.5) plus Tween. Bound GBAP was detected by a monoclonal antibody specific for that GBAP, followed by incubation with secondary antibody conjugated to horseradish peroxidase (HRP). Antibody was diluted in PBS (pH 6.5 supplemented with 1% BSA). Following each incubation with antibody, the plate was washed with de-ionized water and three times with PBS (pH 6.5) wash buffer containing 0.1% Tween. The peroxidase substrate chromogen, TMB (Dako Cat. No. S1599) was added (100 μl per well) to the ELISA plate and incubated at room temperature. After 5 minutes ELISA Stop Solution (hydrochloric acid 1N, sulfuric acid 3N) was added (100 μl per well) to stop the peroxidase catalyzed colorimetric reaction. The Optical Density of the samples was measured at 450 nm using an ELISA plate reader (BioTek Synergy H1). Following color development, the % inhibition compared to control (BSA-coated plates) was determined. IC-50s were calculated using GraphPad Prism software.
The assay was performed as described in Example 43, with the following modifications.
Following to coating the plates with Heparin-BSA, plates were washed as described. The compounds were dissolved in DMSO at 10 mM final concentration and further diluted prior to assay. DMSO concentration in the screening well was up to 2%. Individual compounds were co-incubated with TDP-43 on plates containing immobilized heparin. TDP43 from R&D System (Cat. No. AP-190) was quickly frozen and kept in aliquots at −80 degrees Celsius. TDP-43 dissolved in PBS (pH 6.5, supplemented with BSA, 0.1%) was added to the ELISA plate (100 μl per well) and incubated for 2 hours at RT with gentle shaking. Following the incubation, the plate was washed with de-ionized water and three times with PBS (pH 6.5) plus Tween. Bound TDP-43 was detected by Anti-TDP43 Monoclonal Antibody (R&D System Cat. No. MAB7778), followed by secondary anti-IgG antibody conjugated to HRP (R&D System, Cat. No. HAF007). Following to color development with TMB, as described in Example 43, the Optical Density of the samples was measured at 450 nm using an ELISA plate reader. Following color development, the % inhibition compared to control (no compound, DMSO control) for every compound was determined.
As described in Example 43, Heparin in the form of Heparin-BSA conjugate is used as a source of HS-GAG. For each compound IC-50 value in TDP-43—heparin-BSA binding assay is shown in μM (micromolar). In some cases IC-50 was not measured and % inhibition at 30 μM compound concentration is shown instead. […] All assays were done on 96-well plates in duplicates and experiments were repeated at least twice. […]

In experiment [2] the target is Alpha-Synuclein Protofibril binding to heparin (HS-GAG) (Homo sapiens, UniProt P37840). Put plainly: Inhibition of alpha-synuclein protofibril binding to immobilized heparin-BSA (ELISA). Details: species or system porcine. Particulars: for inhibition at 30 µM: read-out: Alpha-Synuclein/Heparin Activity (% inhibition class). As for the experimental part:
as §1
The assay was performed as described in Example 43, with the following modifications. Following to coating the plates with Heparin-BSA, plates were washed as described. The compounds were dissolved in DMSO at 10 mM final concentration and further diluted prior to assay. DMSO concentration in the screening well was up to […]. Individual compounds were co-incubated with alpha-synuclein on plates containing immobilized heparin. Alpha-synuclein purchased from rPeptide (Cat. No. S1001) was used to prepare protofibrils as described in Ihse et al., 2017. Alpha-synuclein was dissolved in PBS (pH7.4) to a concentration of 140 μM (˜2 mg/ml), and incubated for 7 days at 37° C. with rotary agitation (400 rpm). Resulting fibrils were sonicated for 10 minutes in ultrasonic water bath, quickly frozen and kept in aliquots at −80 degrees Celsius. Protofibrillar alpha-synuclein diluted in PBS (pH 6.5, supplemented with BSA, 0.1%) was added to the ELISA plate (100 μl per well) and incubated for 2 hours at RT with gentle shaking. Following the incubation, the plate was washed with de-ionized water and three times with PBS (pH 6.5) plus Tween. Bound Alpha-synuclein was detected by Anti-Alpha-synuclein Monoclonal Antibody 211 (Santa Cruz Cat. No. sc-12767), followed by secondary anti-IgG antibody conjugated to HRP (R&D System, Cat. No. HAF007). Following to color development with TMB, as described in Example 43, the Optical Density of the samples was measured at 450 nm using an ELISA plate reader. Following color development, the % inhibition compared to control (no compound, DMSO control) for every compound was determined.
An example of inhibition curve is shown in FIG. 1 for Inhibitor Compounds 22 and 24. […]
For orientation: An ELISA detects its analyte on a solid surface through an enzyme-linked reagent.

Where [3] appears, read: Alpha-Synuclein/Heparin Activity (IC-50), alpha-synuclein protofibrils, heparin-BSA.
Where [4] appears, read: read-out: TDP43/Heparin Activity (IC-50).
[5] abbreviates: alpha-synuclein protofibrils, heparin-BSA, read-out: Alpha-Synuclein/Heparin Activity (IC-50).
The mark [6] stands for this setting: 30 μM compound, alpha-synuclein protofibrils, heparin-BSA.

Sequence of TDP-43 binding to heparin (HS-GAG) (Q13148 whole entry): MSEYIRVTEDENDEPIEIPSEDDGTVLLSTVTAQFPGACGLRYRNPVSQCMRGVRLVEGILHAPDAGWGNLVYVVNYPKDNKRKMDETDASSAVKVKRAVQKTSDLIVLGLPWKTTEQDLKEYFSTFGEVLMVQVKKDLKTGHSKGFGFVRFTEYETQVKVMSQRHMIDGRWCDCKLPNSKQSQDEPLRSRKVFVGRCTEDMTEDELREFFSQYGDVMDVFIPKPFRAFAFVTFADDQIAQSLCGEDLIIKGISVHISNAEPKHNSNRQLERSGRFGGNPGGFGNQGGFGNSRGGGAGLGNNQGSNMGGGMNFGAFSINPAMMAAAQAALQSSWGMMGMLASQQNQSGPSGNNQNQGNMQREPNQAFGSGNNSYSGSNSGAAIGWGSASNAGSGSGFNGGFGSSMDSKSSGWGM

Consider `COc1cc(Nc2nncc3cc(Cl)ccc23)cnc1-n1cnc(C)c1C` [Compound 31, 6-chloro-N-(6-(4,5-dimethyl-1H-imidazol-1-yl)-5-methoxypyridin-3-yl)phthalazin-1-amine phosphoric acid salt], for which the inhibition at 30 µM in experiment [1] and in experiment [2] was below 30% in each case.
As for `CC(=NNc1ccnc2cc(Cl)ccc12)c1ccc(-n2ccnc2)cc1` [Compound 36, 4-(2-(1-(4-(1H-imidazol-1-yl)phenyl)ethylidene)hydrazineyl)-7-chloroquinoline phosphate], the IC50 in experiment [1] (TDP43/Heparin Activity (IC-50)) amounted to 47.9 µM; in experiment [2] (setting [3]), 4.17 µM.
As to `C/C(=N\Nc1nncc2cc(Cl)ccc12)c1ccc(-n2cc(C)nc2C)nc1` [Compound 24, (E)-6-chloro-1-(2-(1-(6-(2,4-dimethyl-1H-imidazol-1-yl)pyridin-3-yl)ethylidene)hydrazineyl)phthalazine], the results for the IC50 in experiment [1] (setting [4]) and in experiment [2] (setting [5]) were 0.89 µM and 6.44 µM, respectively.
Turning to `Clc1ccc2c(Nc3ccc(-n4cncn4)nc3)ccnc2c1` [Compound 44, N-(6-(1H-1,2,4-triazol-1-yl)pyridin-3-yl)-7-chloroquinolin-4-amine], the IC50 is 6.54 µM in experiment [1] (TDP43/Heparin Activity (IC-50)) and 19.2 µM in experiment [2] (setting [3]).
As for `C/C(=N\Nc1ncnc2cc(Cl)ccc12)c1ccc(-n2cc[n+](C)c2)nc1` [Compound 17, (E)-1-(5-(1-(2-(7-chloroquinazolin-4-yl)hydrazineylidene)ethyl)pyridin-2-yl)-3-methyl-1H-imidazol-3-ium iodide phosphoric acid salt], the IC50 in experiment [1] (TDP43/Heparin Activity (IC-50)) came to 33.6 µM; in experiment [2] (setting [3]), 13.5 µM.
For `Fc1ccc2c(N/N=C/c3ccc(CN4CCOCC4)cc3)ccnc2c1` [Compound 6, (E)-4-(4-((2-(7-fluoroquinolin-4-yl)hydrazono)methyl)benzyl)morpholine], the inhibition at 30 µM in experiment [1] is below 30%; in experiment [2] (setting [6]), above 30%.
In the case of `C/C(=N\Nc1ncnc2cc(Cl)ccc12)c1cccc(CN(C)C)c1` [Compound 29, 1-(3-(1-(2-(7-chloroquinazolin-4-yl)hydrazineylidene)ethyl)phenyl)—N,N-dimethylmethanamine], the inhibition at 30 µM is below 30% in experiment [1] and above 30% in experiment [2].
As to `CN1CCN(Cc2ccc(/C=N/Nc3ccnc4cc(Cl)ccc34)cc2)CC1` [Compound 7, (E)-7-chloro-4-(2-(4-((4-methylpiperazin-1-yl)methyl)benzylidene)hydrazinyl)quinolone], the inhibition at 30 µM in experiment [1] is below 30%. Moreover, the IC50 in experiment [2] (setting [3]) came out at 1.41 µM.
For `C/C(=N\Nc1ncnc2cc(Cl)ccc12)c1ccc(-n2cc(C)nc2C)nc1` [Compound 27, (E)-7-chloro-4-(2-(1-(6-(2,4-dimethyl-1H-imidazol-1-yl)pyridin-3-yl)ethylidene)hydrazineyl)quinazoline hydrochloride], the IC50 in experiment [1] (setting [4]) came to 2.18 µM; in experiment [2] (setting [5]) it was 1.95 µM.
For `Clc1ccc2c(N/N=C/c3ccc(-n4cccn4)cc3)ccnc2c1` [Compound 3, (E)-4-((E)-(4-(1H-pyrazol-1-yl)benzylidene)hydrazono)-7-chloro-1,4-dihydroquinoline], the IC50 in experiment [1] (TDP43/Heparin Activity (IC-50)) is 8.1 µM; in experiment [2] (setting [3]), 1.7 µM.
For the molecule `Clc1ccc2c(Nc3ccc(-n4ccnc4)nc3)ncnc2c1` [Compound 41, N-(6-(1H-imidazol-1-yl)pyridin-3-yl)-7-chloroquinazolin-4-amine], the IC50 was determined as 4.25 µM in experiment [1] (setting [4]) and 12.8 µM in experiment [2] (setting [5]).
As to `Clc1ccc2c(N/N=C/c3ccc(-n4ccnc4)cc3)ccnc2c1` [Compound 38, 4-(2-(4-(1H-imidazol-1-yl)benzylidene)hydrazineyl)-7-chloroquinoline dihydrochloride], the IC50 in experiment [1] (TDP43/Heparin Activity (IC-50)) was 5.73 µM; in experiment [2] (setting [3]) it was 1.88 µM.
Consider `Cc1cc(-n2ccnc2)ccc1/C=N/Nc1ccnc2cc(Cl)ccc12` [Compound 1, (E)-4-((E)-(4-(1H-imidazol-1-yl)-2-methylbenzylidene)hydrazono)-7-chloro-1,4-dihydroquinoline], for which the figures for the IC50 in experiment [1] (setting [4]) and in experiment [2] (setting [5]) were 2.92 µM and 3.19 µM, respectively.
Take `CCN(CC)Cc1cccc(Nc2ccnc3cc(Cl)ccc23)c1` [Compound 42, 7-chloro-N-(3-((diethylamino)methyl)phenyl)quinolin-4-amine]: the inhibition at 30 µM in experiment [1] and in experiment [2] (setting [6]) was below 30% each time.
Regarding `CCN1CCN(c2ccc(Nc3ccnc4cc5ccccc5cc34)cc2)CC1` [Compound 39, N-(4-(4-ethylpiperazin-1-yl)phenyl)benzo[g]quinolin-4-amine], the inhibition at 30 µM in experiment [1] was above 30%. Besides, the IC50 in experiment [2] (setting [3]) was 3.39 µM.
Turning to `Fc1cc(/C=N/Nc2ccnc3cc(Cl)ccc23)ccc1-n1ccnc1` [Compound 35, (E)-7-chloro-4-(2-(3-fluoro-4-(1H-imidazol-1-yl)benzylidene)hydrazineyl)quinoline hydrochloride], the IC50 in experiment [1] (TDP43/Heparin Activity (IC-50)) is 15.6 µM. Further, the inhibition at 30 µM in experiment [2] is below 30%.
`C(=N\Nc1ccc2c3c(cccc13)CC2)/c1ccc(-n2ccnc2)cc1` [Compound 8, (E)-1-(4-((2-(1,2-dihydroacenaphthylen-5-yl)hydrazineylidene)methyl)phenyl)-1H-imidazole]: in experiment [1] (TDP43/Heparin Activity (IC-50)), the IC50 stood at 10.8 µM. The inhibition at 30 µM in experiment [2] is below 30%.
Turning to `CC(=NNc1ccnc2cc(Cl)ccc12)c1ccc(-n2cc[n+](C)c2)nc1` [Compound 23, 1-(5-(1-(2-(7-chloroquinolin-4-yl)hydrazineylidene)ethyl)pyridin-2-yl)-3-methyl-1H-imidazol-3-ium iodide], the inhibition at 30 µM in experiment [1] and in experiment [2] was below 30% in each case.
With `CC(=NNc1ccnc2cc(Cl)ccc12)c1ccc(-n2cnc(C)c2C)nc1` [Compound 22, 7-chloro-4-(2-(1-(6-(4,5-dimethyl-1H-imidazol-1-yl)pyridin-3-yl)ethylidene)hydrazineyl)quinoline], the results for the IC50 in experiment [1] (TDP43/Heparin Activity (IC-50)) and in experiment [2] (setting [3]) were 9.02 µM and 2.87 µM, respectively.
